From PubChem BioAssay (NCI)
Values joined by “and” are separate entries in the source; they are usually repeats but may differ in a detail not shown here. Equal values may be shown once.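 48-hour exposure; five concentrations; linearly interpolated endpoints. The concentration for 50% growth inhibition is given as GI50. TGI: total growth inhibition.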

What was measured:
Experiment in all cases: NCI anticancer screen, dose series, 48 h
A549 NSCLC = tested on: A549 NSCLC
COLO 205 colon = tested on: COLO 205 colon
HCC-2998 colon = tested on: HCC-2998 colon
HS 578T breast = tested on: HS 578T breast
NCI-H23 lung = tested on: NCI-H23 lung
OVCAR-5 ovarian = tested on: OVCAR-5 ovarian
RXF 393 renal = tested on: RXF 393 renal
TK-10 renal = tested on: TK-10 renal
UACC-257 melanoma = tested on: UACC-257 melanoma
UO-31 renal = tested on: UO-31 renal

SMILES	GI50 (A549 NSCLC)	TGI (A549 NSCLC)	GI50 (COLO 205 colon)	TGI (COLO 205 colon)	GI50 (HCC-2998 colon)	TGI (HCC-2998 colon)	GI50 (HS 578T breast)	TGI (HS 578T breast)	GI50 (NCI-H23 lung)	TGI (NCI-H23 lung)	GI50 (OVCAR-5 ovarian)	TGI (OVCAR-5 ovarian)	GI50 (RXF 393 renal)	TGI (RXF 393 renal)	GI50 (TK-10 renal)	TGI (TK-10 renal)	GI50 (UACC-257 melanoma)	TGI (UACC-257 melanoma)	GI50 (UO-31 renal)	TGI (UO-31 renal)
COC1=CC(c2ccc[nH]2)=N/C1=C\c1[nH]c(C)c(C(=O)CCCCCCCCC(=O)O[C@H]2CC[C@H]3C4CCc5cc(O)ccc5C4CC[C@]23C)c1C (stereo partly drawn)	1110 nM	8880 nM	332 nM	> 50000 nM	623 nM	> 50000 nM	411 nM	> 33900 nM	1850 nM	> 50000 nM	1240 nM	> 50000 nM	1210 nM	24500 nM	861 nM	> 50000 nM	3620 nM	> 50000 nM	1180 nM	5300 nM
O=c1[nH]c(C2CCCN2)nc2c1oc1ccc(Cl)cc12 (stereo not drawn)	> 100000 nM	> 100000 nM	26000 nM	> 100000 nM	> 100000 nM	> 100000 nM	28300 nM	> 100000 nM	> 100000 nM	> 100000 nM	> 100000 nM	> 100000 nM	> 70200 nM	> 100000 nM	> 100000 nM	> 100000 nM	54800 nM	> 100000 nM	26900 nM	> 100000 nM
[N-]=[N+]=CC(=O)CCC(N)C(=O)O (stereo not drawn)	2780 nM	> 250000 nM	812 nM	> 128000 nM	62700 nM	> 250000 nM	42200 nM	> 250000 nM	6940 nM	> 215000 nM	–	> 186000 nM	24600 nM	210000 nM	35600 nM	244000 nM	78500 nM	> 250000 nM	8310 nM	219000 nM
COc1cc(/C=N/NC(=O)c2cnn3c2NC(c2ccccc2)C3)ccc1OC1CCCC1 (stereo not drawn)	731 nM	3860 nM	590 nM	7530 nM	3190 nM	19700 nM	705 nM	4140 nM	1440 nM	8850 nM	1840 nM	10900 nM	357 nM	1470 nM	4060 nM	16300 nM	1450 nM	12000 nM	1220 nM	6590 nM
Cn1c(COC(=O)NCCn2ccnc2)nc2c(N3CCOCC3)nc(-c3ccccc3)nc21	1430 nM	3380 nM	1150 nM	2970 nM	1410 nM	2900 nM	1060 nM	3590 nM	1520 nM	3080 nM	1390 nM	3010 nM	488 nM	1800 nM	1070 nM	2410 nM	1280 nM	2860 nM	441 nM	1740 nM
O=C1C(=O)c2c(nc3ccc(C(F)(F)F)cn23)-c2ccccc21	513 nM	1230 nM	1630 nM	3520 nM	499 nM	988 nM	206 nM	523 nM	175 nM	477 nM	414 nM	998 nM	254 nM	616 nM	738 nM	1240 nM	193 nM	363 nM	164 nM	345 nM
COc1cc2c(/C=C3\C(=O)Nc4ccccc43)c[nH]c2cc1C	< 28.9 nM	17300 nM	118 nM	4390 nM	< 17.9 nM	167 nM	< 22.9 nM	32100 nM	11.5 nM	71.9 nM	620 nM	19100 nM	< 23.1 nM	710 nM	1310 nM	9950 nM	< 10 nM	26000 nM	2870 nM	> 40800 nM
COc1cc(C2CC(c3ccc(Nc4nc(NCCO)nc(NCCO)n4)cc3)=NN2c2cc(Cl)cc(Cl)c2)cc(OC)c1OC (stereo not drawn)	1380 nM	3220 nM	2700 nM	9290 nM	2140 nM	4840 nM	644 nM	3340 nM	2020 nM	4970 nM	2150 nM	7560 nM	568 nM	2340 nM	2010 nM	4450 nM	1860 nM	3870 nM	2080 nM	8090 nM
CCN(CC)C(=S)SSC(C)C	31200 nM	> 100000 nM	41.2 nM	20600 nM	16800 nM	31100 nM	936 nM	28300 nM	16400 nM	36000 nM	18300 nM	32600 nM	16500 nM	31500 nM	20300 nM	38000 nM	21700 nM	95800 nM	8990 nM	24100 nM
CC(C)Cc1cnc(CC(C)C)c(=O)[nH]1	–	> 100000 nM	–	> 100000 nM	–	> 100000 nM	–	> 100000 nM	–	> 100000 nM	–	> 100000 nM	–	> 100000 nM	–	> 100000 nM	–	> 100000 nM	–	> 100000 nM
NCCO/C=C/C(N)C(=O)O (stereo not drawn)	–	> 100000 nM	–	> 100000 nM	–	> 100000 nM	–	> 100000 nM	–	> 100000 nM	–	> 100000 nM	–	> 100000 nM	–	> 100000 nM	–	> 100000 nM	–	> 100000 nM
C[C@@H]1C[C@@H]([C@H](O)CC2CC(=O)NC(=O)C2)C(=O)[C@@H](C)C1	204 nM	1760 nM and 1730 nM	224 nM	2000 nM and 1470 nM	325 nM	7930 nM and 3630 nM	488 nM	–	274 nM	4780 nM and 941 nM	317 nM	14600 nM and 4020 nM	135 nM	1480 nM and 462 nM	220 nM	2390 nM and 1010 nM	248 nM	1650 nM and 1030 nM	230 nM	4630 nM and 675 nM
